Assays:
recombinant human 5-LO = target: T1, recombinant human 5-LO (Homo sapiens, UniProt P09917); assay: Direct inhibition of 5-LO activity in a cell-free assay (H2DCF-DA fluorescence); format: biochemical; settings: cell-free, recombinant human 5-LO; 95% confidence interval in brackets
T1 sequence (P09917 1-674): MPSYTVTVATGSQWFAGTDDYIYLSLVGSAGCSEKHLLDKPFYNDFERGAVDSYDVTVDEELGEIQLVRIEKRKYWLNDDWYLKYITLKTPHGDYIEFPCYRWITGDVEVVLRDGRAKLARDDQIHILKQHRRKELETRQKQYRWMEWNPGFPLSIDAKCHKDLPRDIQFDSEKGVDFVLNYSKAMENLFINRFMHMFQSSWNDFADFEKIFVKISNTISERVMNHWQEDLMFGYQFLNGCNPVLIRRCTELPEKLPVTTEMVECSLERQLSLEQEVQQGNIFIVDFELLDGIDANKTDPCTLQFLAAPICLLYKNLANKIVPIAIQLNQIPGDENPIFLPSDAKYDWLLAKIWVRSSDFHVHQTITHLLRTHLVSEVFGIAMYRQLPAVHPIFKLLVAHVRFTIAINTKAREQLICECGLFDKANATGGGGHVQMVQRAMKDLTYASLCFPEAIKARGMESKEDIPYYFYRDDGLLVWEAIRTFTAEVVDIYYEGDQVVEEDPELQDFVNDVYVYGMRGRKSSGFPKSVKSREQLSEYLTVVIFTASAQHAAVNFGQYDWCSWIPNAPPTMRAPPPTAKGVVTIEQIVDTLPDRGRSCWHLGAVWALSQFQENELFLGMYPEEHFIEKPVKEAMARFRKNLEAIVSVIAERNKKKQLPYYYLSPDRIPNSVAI
Procedure: The assay was based on the oxidation of the dye 2′,7′-dichlorodihydrofluorescein diacetate (H2DCF-DA) to a highly fluorescent product by 5-LO enzymatic products. H2DCF-DA (60 µM) was first pre-cleaved by incubating with 450 mU/ml recombinant human 5-LO enzyme in Tris buffer (containing 50 mM Tris, pH = 7.5, 2 mM EDTA, 2 mM CaCl2, 1 mM DTT and 0.6 U/ml glutathione peroxidase) for 10 min at room temperature. […] After 10 min incubation at room temperature, the reaction was started with the addition of 50 µl of substrate solution (Tris buffer containing 20 µM ATP and 20 µM arachidonic acid (AA). After a further 20 min, the reaction was terminated with 100 µl acetonitrile. Fluorescence was read at 500 nm excitation and 520 nm emission, with Novostar^R microplate reader (BMG Labtech, Offenburg, Germany). Appropriate controls, including 100 µM nordihydroguaiaretic acid (NDGA), were included to isolate only the 5-LO-attributable, NDGA-inhibitable RFU values.
All data were analysed using GraphPad Prism software (GraphPad Software, San Diego, CA). […] Differences between experimental groups were first analysed by one-way ANOVA, followed by Bonferroni’s post-hoc test. A p-value of less than 0.05 was taken as statistically significant.

[1] = tested on: zymosan-induced peritoneal inflammation; assay: Zymosan-induced peritoneal inflammation model in mice; format: in vivo, mouse; settings: for Inhibition of total LTC4 content of the peritoneal lavage fluid: p < 0.001 vs zymosan plus vehicle
Procedure: Female Balb/c mice 6 to 8-weeks-old obtained from the Animal Resources Centre of the Health Sciences Centre, Kuwait University, were used. They were maintained under temperature-controlled conditions with an artificial 12-h light/dark cycle and allowed standard chow and water ad libitum. The study was carried out in compliance with the Regulations for the Use of Laboratory Animals in the Health Sciences Centre, Kuwait University, and complied with the National Institute of Health guide for the care and use of laboratory animals (NIH Publication # 8023, revised 1978). The zymosan-induced peritonitis model - a recognised LT-mediated inflammatory reaction, was used. […] After 30 min, all groups were injected intraperitoneally with 0.2 ml of activated zymosan (2 mg/ml) except the control group that received 0.2 ml PBS. After 2 h, all animals were killed, and the peritoneal exudate collected by washing the cavity with 3 ml of heparinised (10 IU/ml) PBS. Cells in the exudate were recovered by centrifugation and counted in a haemocytometer while the supernatant volume was recorded and then stored frozen at −78 °C until used for the determination of LTC4 by ELISA as detailed above.

[2] = tested on: leukotriene (LT) biosynthesis / 5-LO; assay: Overall activity across the four in vitro test systems (three cell-based LT release assays and 5-LO)
Procedure: Furthermore, in order to confirm that the in vitro inhibitory activity of the compounds was not due to the direct toxic effects on the cells, the effect of the compounds on the viability of isolated human monocytes after 3 h and 24 h treatment was performed. Finally, in vivo anti-inflammatory studies were performed using the zymosan-induced peritoneal inflammation model in mice, which is a well-known model in which the LTs are known to play a critical role[26].
The inhibitory activity data for the tested compounds obtained in three cell-based in vitro test systems - LTB4 release from human whole blood, LTC4 release from isolated human monocytes and LTC4 release from IgE/antigen-activated mouse mast cells, are shown in Table 1. Similar data on the direct inhibitory effect on the enzymatic activity of recombinant human 5-LO, together with the calculated Clog P (log of partition coefficient) values, which is an indication of the lipophilicity of each compound, are also shown in Table 1.

[3] = 10 mg/kg subcutaneously 30 min before zymosan

IC50 (recombinant human 5-LO): 1900 nM
IC50 ([2]; summary statements, in vitro test systems, read-out: IC50 (test system not specified / across test systems)): < 1000 nM
Structure (SMILES): CCCCCCC(=O)N(O)C[C@H]1CN(c2ccc(N3CCOCC3)c(F)c2)C(=O)O1 [PH-249, (R)-N-((3-(3-fluoro-4-morpholinophenyl)-2-oxooxazolidin-5-yl)methyl)-N-hydroxyheptanamide]
Inhibition of cellular infiltration (total cellular content of peritoneal lavage) [1, 3]: only the inhibition by the higher dose reached statistical significance
Inhibition of total LTC4 content of the peritoneal lavage fluid [1, 3]: highly significant inhibition
Inhibition of total LTC4 content of the peritoneal lavage fluid ([1]; 30 mg/kg subcutaneously 30 min before zymosan): highly significant inhibition
Inhibition of cellular infiltration (total cellular content of peritoneal lavage) ([1]; 30 mg/kg subcutaneously 30 min before zymosan, p < 0.01 vs zymosan plus vehicle): reached statistical significance
Activity across the in vitro test systems (in words) ([2]; cell-based systems and cell-free 5-LO): active in all four test systems

Reference: PMC7470027, “Synthesis and structure-activity relationships of novel 5-(hydroxamic acid)methyl oxazolidinone derivatives as 5-lipoxygenase inhibitors” (Journal of Enzyme Inhibition and Medicinal Chemistry, 2020)
